Measurements reported in patent US20230141603A1, “BENZODIAZEPINE DERIVATIVES AS GABA A GAMMA1 PAM” (Hoffmann-La Roche Inc., priority 2021, published 2023).

What follows are compounds tested against T1, h-GABAA α2β2γ1 (Homo sapiens, UniProt P47869+Q8N1C3) (assay: Radioligand binding assay, [3H]RO7239181 competition, HEK293F membranes).
T1 sequence (P47869 29-451): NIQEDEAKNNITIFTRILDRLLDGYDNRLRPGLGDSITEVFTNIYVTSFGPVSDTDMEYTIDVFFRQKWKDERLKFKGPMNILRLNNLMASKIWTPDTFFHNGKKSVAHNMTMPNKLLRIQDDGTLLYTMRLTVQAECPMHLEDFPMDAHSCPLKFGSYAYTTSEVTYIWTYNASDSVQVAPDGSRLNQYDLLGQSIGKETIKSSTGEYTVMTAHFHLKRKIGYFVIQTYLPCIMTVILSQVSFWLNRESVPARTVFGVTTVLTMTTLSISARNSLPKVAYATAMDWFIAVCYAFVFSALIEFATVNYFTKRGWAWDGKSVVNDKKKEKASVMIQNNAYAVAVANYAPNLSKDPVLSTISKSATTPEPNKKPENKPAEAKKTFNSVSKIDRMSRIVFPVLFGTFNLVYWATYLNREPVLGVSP
T1 sequence (P47870 25-512 partner limits assumed): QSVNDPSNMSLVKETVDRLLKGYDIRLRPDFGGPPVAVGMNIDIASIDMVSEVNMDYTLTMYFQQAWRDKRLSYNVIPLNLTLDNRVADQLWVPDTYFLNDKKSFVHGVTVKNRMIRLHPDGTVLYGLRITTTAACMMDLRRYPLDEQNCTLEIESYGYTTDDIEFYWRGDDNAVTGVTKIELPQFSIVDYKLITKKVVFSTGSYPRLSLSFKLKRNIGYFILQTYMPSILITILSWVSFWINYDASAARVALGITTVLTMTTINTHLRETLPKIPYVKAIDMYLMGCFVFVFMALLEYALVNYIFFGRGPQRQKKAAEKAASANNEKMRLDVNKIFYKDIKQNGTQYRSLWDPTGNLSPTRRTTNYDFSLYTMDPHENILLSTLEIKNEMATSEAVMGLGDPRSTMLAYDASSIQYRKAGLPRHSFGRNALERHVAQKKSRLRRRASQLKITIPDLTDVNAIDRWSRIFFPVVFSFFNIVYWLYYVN
T1 sequence (Q8N1C3 36-465): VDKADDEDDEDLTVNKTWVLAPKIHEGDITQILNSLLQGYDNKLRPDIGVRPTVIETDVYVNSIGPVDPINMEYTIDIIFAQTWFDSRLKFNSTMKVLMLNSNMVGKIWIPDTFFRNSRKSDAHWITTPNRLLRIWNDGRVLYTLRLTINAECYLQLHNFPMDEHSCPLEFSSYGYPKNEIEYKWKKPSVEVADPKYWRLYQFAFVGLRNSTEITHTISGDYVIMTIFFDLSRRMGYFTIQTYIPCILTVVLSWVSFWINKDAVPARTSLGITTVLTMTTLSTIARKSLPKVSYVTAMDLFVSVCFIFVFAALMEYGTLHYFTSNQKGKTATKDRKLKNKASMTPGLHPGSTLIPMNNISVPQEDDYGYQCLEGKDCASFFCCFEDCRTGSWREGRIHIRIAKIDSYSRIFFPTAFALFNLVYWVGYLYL
Parameters: signal peptide of human GABAA α5 subunit (Met1 to Ser31), replacing the α2 signal peptide (N); expressed in transfected cells; host or cells: HEK293F cells (ThermoFisher R79007), membranes
Experimental: The affinity of compounds at GABAA γ1 subunit-containing receptors was measured by competition for [^3H]RO7239181 (67.3 Ci/mmol; Roche) binding to membranes from HEK293F cells (ThermoFisher R79007) expressing human (transiently transfected) receptors of composition […], α2β2γ1, α1β2γ1.
Harvested pellets from HEK293F cells expressing the different GABAA receptor subtypes were resuspended in Mannitol Buffer pH 7.2-7.4 (Mannitol 0.29M, Triethylamine 10 mM, Acetic acid 10 mM, EDTA 1 mM plus protease inhibitors (20 tablets Complete, Roche Diagnostics Cat. No. 05 056 489 001 per liter)), washed two times and then resuspended at 1:10 to 1:15 dilution in the same buffer. Cell disruption was performed by stirring the suspension in a Parr vessel #4637 at 435 psi for 15 minutes, and then the suspensions were centrifuged at 1000×g for 15 minutes at 4° C. (Beckman Avanti J-HC; rotor JS-4.2). The supernatant (S1) was transferred in a 21 Schott flask and the pellet (P1) was resuspended with Mannitol Buffer up to 175 ml. The resuspended pellet was transferred into a 250 ml Corning centrifugal beaker and centrifuged at 1500×g for 10 minutes at 4° C. (Beckman Avanti J-HC; rotor JS-4.2). The supernatant (S1) was then transferred in the 21 Schott flask and the pellet was discarded. The supernatants (S1) were centrifuged in 500 ml Beckman polypropylene centrifugal beaker at 15′000×g for 30 minutes at 4° C. (Beckman Avanti J-20 XP; rotor JLA-10.500). The pellet (P2) was resuspended with Mannitol Buffer 1:1 and frozen at −80° C. The supernatant (S2) was centrifuged in 100 ml Beckman polypropylene centrifugal tubes at 48000×g for 50 minutes at 4° C. (Beckman Avanti J-20 XP; rotor JA-18). The supernatant (S3) was discarded and the pellet (P3) was resuspended with 1:1 Mannitol Buffer. The P2 and P3 protein concentration was determined with the BIORAD Standard assay method with bovine serum albumin as standard and measured on the NANO-Drop 1000. The membrane suspension was aliquots (500 μl per tube) and stored at −80° C. until required. Membrane homogenates were resuspended and polytronised (Polytron PT1200E Kinematica AG) in Potassium Phosphate 10 mM, KCl 100 mM binding buffer at pH 7.4 to a final assay concentration determined with a previous experiment.
Assays were incubated to equilibrium for 1 hour at 4° C. and then, membranes were filtered onto unifilter (96-well white microplate with bonded GF/C filters preincubated 20-50 minutes in 0.3% Polyethylenimine) with a Filtermate 196 harvester (Packard BioScience) and washed 4 times with cold Potassium Phosphate 10 mM pH 7.4, KCl 100 mM binding buffer. After drying, filter-retained radioactivity was detected by liquid scintillation counting. Ki values were calculated using Excel-Fit (Microsoft) and are the means of two determinations.
`Cc1nnc2n1-c1ccc(Br)c(Cl)c1C(c1ncccc1F)=NC2` [Example 24, 8-bromo-7-chloro-6-(3-fluoro-2-pyridyl)-1-methyl-4H-[1,2,4]triazolo[4,3-a][1,4]benzodiazepine] was tested, and the Ki was 24.3 nM. Compound `Cc1nnc2n1-c1ccc(C(F)F)c(Cl)c1C(c1c(F)cccc1F)=NC2` [Example 25, 7-chloro-8-(difluoromethyl)-6-(2,6-difluorophenyl)-1-methyl-4H-[1,2,4]triazolo[4,3-a][1,4]benzodiazepine] has a Ki of 49.2 nM. Compound `O=c1[nH]nc2n1-c1ccc(Br)c(Cl)c1C(c1ccccc1F)=NC2` [Example 26, 8-bromo-7-chloro-6-(2-fluorophenyl)-2,4-dihydro-[1,2,4]triazolo[4,3-a][1,4]benzodiazepin-1-one] has a Ki of 31.6 nM. In the case of `Fc1ccccc1C1=NCc2nnc(-c3cccnn3)n2-c2ccc(C(F)(F)F)c(Cl)c21` [Example 27, 7-chloro-6-(2-fluorophenyl)-1-pyridazin-3-yl-8-(trifluoromethyl)-4H-[1,2,4]triazolo[4,3-a][1,4]benzodiazepine], the Ki is reported as 84.5 nM. For `Cn1cc(-c2nnc3n2-c2ccc(Cl)c(Cl)c2C(c2c(F)cccc2F)=NC3)cn1` [Example 28, 7,8-dichloro-6-(2,6-difluorophenyl)-1-(1-methylpyrazol-4-yl)-4H-[1,2,4]triazolo[4,3-a][1,4]benzodiazepine], the Ki was 9.4 nM. `Fc1cccnc1C1=NCc2nncn2-c2ccc(Br)c(Cl)c21` [Example 29, 8-bromo-7-chloro-6-(3-fluoro-2-pyridyl)-4H-[1,2,4]triazolo[4,3-a][1,4]benzodiazepine] was tested, and the Ki was 47.4 nM. `OCc1nnc2n1-c1ccc(Br)c(Cl)c1C(c1c(F)cccc1F)=NC2` [Example 33, [8-bromo-7-chloro-6-(2,6-difluorophenyl)-4H-[1,2,4]triazolo[4,3-a][1,4]benzodiazepin-1-yl]methanol] showed a Ki of 12.7 nM. In the case of `Fc1cccc(F)c1C1=NCc2nncn2-c2ccc(I)c(Cl)c21` [Example 34, 7-chloro-6-(2,6-difluorophenyl)-8-iodo-4H-[1,2,4]triazolo[4,3-a][1,4]benzodiazepine], the Ki is reported as 10.1 nM. With `Cl.NCc1nnc2n1-c1ccc(Br)c(Cl)c1C(c1c(F)cccc1F)=NC2` [Example 36, [8-bromo-7-chloro-6-(2,6-difluorophenyl)-4H-[1,2,4]triazolo[4,3-a][1,4]benzodiazepin-1-yl]methanamine hydrochloride] the Ki was 8.5 nM. `Fc1cccc(F)c1C1=NCc2nncn2-c2ccc(C(F)(F)F)c(Cl)c21` [Example 37, 7-chloro-6-(2,6-difluorophenyl)-8-(trifluoromethyl)-4H-[1,2,4]triazolo[4,3-a][1,4]benzodiazepine] showed a Ki of 41.4 nM. In the case of `Fc1cccc(F)c1C1=NCc2nnc(-c3cccnn3)n2-c2ccc(C(F)(F)F)c(Cl)c21` [Example 38, 7-chloro-6-(2,6-difluorophenyl)-1-pyridazin-3-yl-8-(trifluoromethyl)-4H-[1,2,4]triazolo[4,3-a][1,4]benzodiazepine], the Ki is reported as 12.6 nM. With `Fc1cccc(F)c1C1=NCc2nnc(-c3cccnn3)n2-c2ccc(I)c(Cl)c21` [Example 39, 7-chloro-6-(2,6-difluorophenyl)-8-iodo-1-pyridazin-3-yl-4H-[1,2,4]triazolo[4,3-a][1,4]benzodiazepine] the Ki was 4.2 nM. `Cc1nnc2n1-c1ccc(C(F)(F)F)c(Cl)c1C(c1c(F)cccc1F)=NC2` [Example 40, 7-chloro-6-(2,6-difluorophenyl)-1-methyl-8-(trifluoromethyl)-4H-[1,2,4]triazolo[4,3-a][1,4]benzodiazepine] was tested, and the Ki was 26.8 nM. In the case of `Cc1nnc2n1-c1ccc(I)c(Cl)c1C(c1c(F)cccc1F)=NC2` [Example 41, 7-chloro-6-(2,6-difluorophenyl)-8-iodo-1-methyl-4H-[1,2,4]triazolo[4,3-a][1,4]benzodiazepine], the Ki is reported as 5.5 nM. `Fc1cccc(F)c1C1=NCc2nnc(-c3cccnn3)n2-c2ccc(Br)c(Br)c21` [Example 42, 7,8-dibromo-6-(2,6-difluorophenyl)-1-pyridazin-3-yl-4H-[1,2,4]triazolo[4,3-a][1,4]benzodiazepine] was tested, and the Ki was 5.5 nM. Compound `Fc1cccc(F)c1C1=NCc2nnc(-c3ccncn3)n2-c2ccc(Br)c(Br)c21` [Example 43, 7,8-dibromo-6-(2,6-difluorophenyl)-1-pyrimidin-4-yl-4H-[1,2,4]triazolo[4,3-a][1,4]benzodiazepine] has a Ki of 5.8 nM. With `Clc1cccnc1C1=NCc2nnc(-c3ccncn3)n2-c2ccc(Br)c(Cl)c21` [Example 44, 8-bromo-7-chloro-6-(3-chloro-2-pyridyl)-1-pyrimidin-4-yl-4H-[1,2,4]triazolo[4,3-a][1,4]benzodiazepine] the Ki was 9.6 nM. `Fc1cccnc1C1=NCc2nnc(-c3cccnn3)n2-c2ccc(Br)c(Cl)c21` [Example 45, 8-bromo-7-chloro-6-(3-fluoro-2-pyridyl)-1-pyridazin-3-yl-4H-[1,2,4]triazolo[4,3-a][1,4]benzodiazepine] showed a Ki of 15.8 nM. With `Fc1cccnc1C1=NCc2nnc(-c3ccncn3)n2-c2ccc(Br)c(Cl)c21` [Example 46, 8-bromo-7-chloro-6-(3-fluoro-2-pyridyl)-1-pyrimidin-4-yl-4H-[1,2,4]triazolo[4,3-a][1,4]benzodiazepine] the Ki was 25.3 nM. `Clc1cccnc1C1=NCc2nnc(-c3cccnn3)n2-c2ccc(Br)c(Cl)c21` [Example 47, 8-bromo-7-chloro-6-(3-chloro-2-pyridyl)-1-pyridazin-3-yl-4H-[1,2,4]triazolo[4,3-a][1,4]benzodiazepine] showed a Ki of 15.9 nM. Work on `Cc1ccc2c(c1Cl)C(c1c(F)cccc1F)=NCc1nnc(-c3cccnn3)n1-2` [Example 48, 7-chloro-6-(2,6-difluorophenyl)-8-methyl-1-pyridazin-3-yl-4H-[1,2,4]triazolo[4,3-a][1,4]benzodiazepine] yielded a Ki of 8.3 nM. Work on `Cc1ccc2c(c1Cl)C(c1c(F)cccc1F)=NCc1nnc(-c3ccncn3)n1-2` [Example 49, 7-chloro-6-(2,6-difluorophenyl)-8-methyl-1-pyrimidin-4-yl-4H-[1,2,4]triazolo[4,3-a][1,4]benzodiazepine] yielded a Ki of 14.1 nM.
